Laboratory results taken from patent US12661355B2, “Compounds and methods for inducing UCP1 expression” (The Regents of the University of California, priority 2020, dated 2026).
Entries after “also recorded” stand apart in the source; their conditions may differ.

Columns and labels:
AKAP1mut cells = experiment: Gene expression in AKAP1mut and AKAP1wt brown adipocyte cell lines; type: cell-based, mouse; details: 10 μM
Procedure: RNA levels were measured by qPCR according to known methods. Briefly, RNA was extracted with TRIzol (Invitrogen) and reverse transcribed with iScript (Bio-Rad). Real-time PCR analysis was performed with a CFX Connect (Bio-Rad).
Two gRNAs were selected using sgRNA Designer from the Broad Institute (gRNA1: […] (SEQ ID NO: 46) and gRNA2: […] (SEQ ID NO: 47)). Cloning was performed using pSpCas9 (BB)-2A-puro (PX459) V2.0 vector (Addgene plasmid #62988). Plasmid construction was confirmed by sequencing. A puromycin-sensitive brown adipocyte cell line was transfected with the two plasmids and selected with […] puromycin. Single-cell cloning was performed in a 96-well plate and clones selected by Western blot to detect AKAP1 protein knockdown, and confirmed by sequencing after PCR amplification (PCR primers: […] (SEQ ID NO: 48) and […] (SEQ ID NO: 49)).
To further assess the requirement of AKAP1 to mediate the effects of Z160, AKAP1 was inactivated in an immortalized brown adipocyte cell line (AKAP1wt) using CRISPR/Cas9 gene editing. One clone (AKAP1mut) was selected based on very low AKAP1 protein levels (FIG. 10A).

AKAP13 = biological target: T1, AKAP13 (Rattus norvegicus, UniProt F1M3G7); experiment: DARTS in H9c2 cell extracts, AKAP13; type: binding; details: 20 μM, 1 h
T1 construct: DARTS assay in H9c2 cell extracts treated with vehicle or 20 μM Z160 for 1 h; endogenous in cells; host or cells: rat H9c2 cells
T1 sequence (F1M3G7 whole entry): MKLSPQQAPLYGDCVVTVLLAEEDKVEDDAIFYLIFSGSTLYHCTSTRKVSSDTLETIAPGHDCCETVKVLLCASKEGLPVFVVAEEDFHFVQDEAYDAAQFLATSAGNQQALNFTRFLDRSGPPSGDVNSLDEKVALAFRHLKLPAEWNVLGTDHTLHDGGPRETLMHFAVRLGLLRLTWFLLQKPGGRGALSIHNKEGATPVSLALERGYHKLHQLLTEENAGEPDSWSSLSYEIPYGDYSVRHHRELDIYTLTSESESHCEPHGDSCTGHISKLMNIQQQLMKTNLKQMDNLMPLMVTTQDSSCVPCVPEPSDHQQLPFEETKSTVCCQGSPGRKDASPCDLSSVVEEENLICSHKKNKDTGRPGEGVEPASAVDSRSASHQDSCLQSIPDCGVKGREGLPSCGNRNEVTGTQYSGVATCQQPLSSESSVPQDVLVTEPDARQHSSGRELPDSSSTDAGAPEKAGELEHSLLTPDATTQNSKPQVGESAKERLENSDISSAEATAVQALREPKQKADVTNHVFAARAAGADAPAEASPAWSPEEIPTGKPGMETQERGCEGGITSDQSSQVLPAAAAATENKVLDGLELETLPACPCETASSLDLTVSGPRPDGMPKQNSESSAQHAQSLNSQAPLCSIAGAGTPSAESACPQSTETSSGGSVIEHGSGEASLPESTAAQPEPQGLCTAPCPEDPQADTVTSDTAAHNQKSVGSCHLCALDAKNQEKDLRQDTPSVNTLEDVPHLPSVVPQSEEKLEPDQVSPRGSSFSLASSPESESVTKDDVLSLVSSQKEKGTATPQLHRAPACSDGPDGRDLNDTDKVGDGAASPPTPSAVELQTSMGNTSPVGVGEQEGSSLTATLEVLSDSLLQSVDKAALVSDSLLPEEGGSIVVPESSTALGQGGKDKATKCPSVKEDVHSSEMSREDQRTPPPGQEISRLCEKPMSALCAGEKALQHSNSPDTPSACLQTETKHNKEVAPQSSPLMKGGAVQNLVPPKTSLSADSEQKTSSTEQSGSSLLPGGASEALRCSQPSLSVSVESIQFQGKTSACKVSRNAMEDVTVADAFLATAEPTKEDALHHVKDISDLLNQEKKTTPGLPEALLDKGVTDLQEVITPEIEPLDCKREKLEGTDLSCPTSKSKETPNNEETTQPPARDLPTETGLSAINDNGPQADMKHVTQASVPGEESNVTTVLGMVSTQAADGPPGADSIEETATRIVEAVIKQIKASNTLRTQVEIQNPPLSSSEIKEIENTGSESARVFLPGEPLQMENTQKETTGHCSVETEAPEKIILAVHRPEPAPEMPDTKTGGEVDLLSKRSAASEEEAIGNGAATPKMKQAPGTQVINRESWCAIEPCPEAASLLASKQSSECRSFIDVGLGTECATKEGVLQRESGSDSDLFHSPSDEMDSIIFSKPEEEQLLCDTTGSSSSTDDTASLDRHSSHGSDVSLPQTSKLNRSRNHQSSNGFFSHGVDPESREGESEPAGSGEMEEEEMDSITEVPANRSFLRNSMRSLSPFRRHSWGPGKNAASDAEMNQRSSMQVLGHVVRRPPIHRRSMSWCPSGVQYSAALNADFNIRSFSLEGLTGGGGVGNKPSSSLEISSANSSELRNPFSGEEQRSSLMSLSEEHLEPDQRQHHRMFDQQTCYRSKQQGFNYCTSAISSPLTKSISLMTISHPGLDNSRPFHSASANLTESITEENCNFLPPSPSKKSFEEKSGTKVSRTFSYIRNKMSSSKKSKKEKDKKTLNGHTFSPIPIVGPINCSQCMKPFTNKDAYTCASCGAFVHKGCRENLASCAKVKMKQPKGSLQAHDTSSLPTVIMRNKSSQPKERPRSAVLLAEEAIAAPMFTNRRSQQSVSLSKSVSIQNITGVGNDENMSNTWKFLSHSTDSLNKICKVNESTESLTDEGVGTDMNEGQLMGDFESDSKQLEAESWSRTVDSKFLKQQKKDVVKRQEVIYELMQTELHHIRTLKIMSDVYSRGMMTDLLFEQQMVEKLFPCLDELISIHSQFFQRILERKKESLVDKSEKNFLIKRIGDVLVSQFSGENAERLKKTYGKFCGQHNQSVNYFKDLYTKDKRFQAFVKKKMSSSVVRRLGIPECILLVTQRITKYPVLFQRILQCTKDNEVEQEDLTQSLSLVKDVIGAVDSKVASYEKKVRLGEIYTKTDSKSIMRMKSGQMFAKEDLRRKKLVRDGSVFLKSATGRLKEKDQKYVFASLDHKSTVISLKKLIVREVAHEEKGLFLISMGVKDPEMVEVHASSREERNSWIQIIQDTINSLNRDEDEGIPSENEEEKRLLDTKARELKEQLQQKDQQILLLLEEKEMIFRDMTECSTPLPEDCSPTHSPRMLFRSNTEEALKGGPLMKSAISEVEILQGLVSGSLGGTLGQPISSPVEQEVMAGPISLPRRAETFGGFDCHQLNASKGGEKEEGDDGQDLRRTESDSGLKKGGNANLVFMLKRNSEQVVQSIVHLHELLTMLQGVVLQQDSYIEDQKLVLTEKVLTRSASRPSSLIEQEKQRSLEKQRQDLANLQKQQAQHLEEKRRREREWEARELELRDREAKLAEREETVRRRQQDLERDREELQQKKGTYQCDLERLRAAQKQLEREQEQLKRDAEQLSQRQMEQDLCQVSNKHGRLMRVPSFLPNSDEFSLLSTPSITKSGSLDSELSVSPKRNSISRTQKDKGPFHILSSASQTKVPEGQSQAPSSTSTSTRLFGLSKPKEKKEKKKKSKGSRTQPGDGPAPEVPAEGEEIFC
Procedure: (§1) Rat H9c2 cells were grown in DMEM supplemented with 10% FBS, 25 mM glucose, 1 mM pyruvate, and 2 mM glutamine Neonatal rat ventricular myocytes (NRVM) were isolated and cultured as previously described. Briefly, 2-4 day old rats were sacrificed and myocytes and fibroblasts were isolated and separated using a Percoll density gradient. Following isolation, NRVMs were plated on gelatin-coated plates in DMEM containing 10% FBS, 25 mM glucose, 1 mM pyruvate, and 2 mM glutamine The next day, FBS was replaced by 1× insulin-transferrin-selenium supplement and the cells were treated with vehicle or 10 μM Z160 for 2 days, with or without 60 μM isoproterenol or 50 μM phenylephrine.
[…] assays were performed according to known methods. Briefly, BAT or cells within a 10 cm dish were lysed with 600 μl M-PER buffer containing protease and phosphatase inhibitors. Debris was pelleted by centrifugation at 18,000 g for 10 min at 4° C., and the lysates were harvested and supplemented with TNC buffer (50 mM Tris-HCl, 50 mM NaCl, 10 mM CaCl2). The lysates were split into two tubes and treated with either vehicle or 20 μM Z160 for 1 h at room temperature. For experiment with BAT, 100 μg of lysate was incubated with different Z160 concentrations. […]

NRVM = experiment: Respirometry (reserve capacity) in neonatal rat ventricular myocytes; type: cell-based; details: 10 μM Z160 for 24 h following 48 h 100 μM isoproterenol
Procedure: as §1
NRVM were seeded in a Seahorse Bioscience XF96 plate and cultured for 48 h in 10% FBS. Next, cells were treated with 100 μM ISO for 48 h, followed by 24 h of 10 μM Z160. Oxygen consumption rate (OCR) was recorded in a Seahorse Bioscience XF96 analyzer before and after the sequential injection of 0.75 μM oligomycin, 0.75 μm FCCP and 0.75 μM rotenone/myxothiazol. Reserve capacity was calculated as the difference between basal respiration and FCCP response.

UCP1 = experiment: Gene expression in immortalized human white adipocytes; type: cell-based; details: 10 μM for 4 days
Procedure: Human immortalized brown and white preadipocytes were obtained from Dr. Yu-Hua Tseng (Joslin Diabetes Center, Harvard Medical School, USA). The generation of the two cell lines from human neck adipose tissue biopsies and immortalization was performed as previously described but from a different donor. Cells were cultured in high glucose DMEM supplemented with 10% FBS and antibiotics. Two days after reaching confluence, cells were treated with 30 μM biotin, 500 nM insulin, 17 μM pantothenate, 100 nM dexamethasone, 2 nM 3,3′,5-Triiodo-L-thyronine, 500 μM IBMX, 30 μM indomethacin and 1 μM rosiglitazone, for 12 days. Afterwards, cells were treated with 30 μM biotin, 500 nM insulin, 17 μM pantothenate and 2 nM 3,3′,5-Triiodo-L-thyronine (Maintenance media) for 2 days with end-point assays performed on day 18, and for 5 days with end-point assays performed on day 21, for the brown and white adipocytes cells, respectively.
Mouse RNA levels were measured by qPCR according to known methods. Data were normalized to B2m and Tbp reference genes. Human RNA was extracted using an RNA Mini Plus kit (Zymo) and gene expression determined by Taqman assay. The 1-step qPCR was run on a QuantStudio 12K Flex Real Time PCR System (ThermoFisher) using the following protocol: 50° C. for 5 minutes, 95° C. for 20 seconds, 40 cycles of 95° C. for 15 seconds and 60° C. for 60 seconds. […]

COc1ccc(NC(=O)CSc2nc3ccccc3c(=O)[nH]2)c(OC)c1 [Z160]
induced expression of Hoxa5, Cidea, Elovl3, Acox1 and Cpt1b in AKAP1mut (AKAP1mut cells; AKAP1mut vs AKAP1wt): blunted or reduced
Ucp1 expression response in AKAP1mut cells (AKAP1mut cells; AKAP1mut): did not respond
Ppargc1a expression (AKAP1mut cells; both AKAP1wt and AKAP1mut cells): increased
pronase susceptibility of AKAP13 (AKAP13): altered pronase susceptibility; also recorded: change of AKAP13 conformation
effect on isoproterenol-induced reduction in reserve capacity (NRVM): prevented the ISO-induced reduction in reserve capacity
UCP1 expression (UCP1): 7 fold
expression of CIDEA, ACADM, CPT1B and ELOVL3 (UCP1): greatly increased expression
